{"source": "patent US7824718B2", "about": "“Extract of Dioscorea opposita thunb showing neuronal cell-protecting activity for treating memory loss” (Tong Yang Moolsan Co., Ltd., priority 2005, dated 2010)", "system": "primary cultures of rat cortical neurons", "assay": "Cell protective activity against glutamate induced-neurotoxicity (MTT assay)", "assay_type": "cell-based, Sprague-Dawley rats", "experimental": "The extracts of Dioscorea opposita were suspended in DMSO (Sigma Co., Ltd) and diluted to the extent that the final concentration reaches to <0.1%. Each suspension was filtered with 0.22 μm membrane filter (Millipore Co., Ltd.) to sterilize. After the concentrations of each fractions were adjusted to 100 μg/ml and 10 μg/ml, The test samples with various final concentration of various fractions were named as follows: 100 μg/ml of hexane layer (H100), 10 μg/ml of hexane layer (H10), 100 μg/ml of water layer (W100), 10 μg/ml of water layer (W10), 100 μg/ml of ethyl-acetate layer (E100), 10 μg/ml of ethylacetate layer (E10), 100 μg/ml of chloroform layer (C100), 10 μg/ml of chloroform layer (C10), 100 μg/ml of butanol layer (B100), 10 μg/ml of butanol layer (B10) respectively. The cultured cell was pretreated with each test sample 1 hour before the glutamate treatment and the protective activity of D. opposita against the death of cerebral cortex cells was assessed.\nThe tested fractions were dissolved in DMSO and diluted to the extent that the final concentration reaches to <0.1%. The matured cerebral cortex cells for 15 days were pretreated with the test fractions for 1 hour and then exposed to 100 μM glutamate. After further incubation for 24 hour, the neuronal survival was quantified using by MTT assay, which yields blue formazan products in living cells.", "data": [{"smiles": "C[C@]12N[C@H](Cc3ccccc31)c1ccccc12", "note": "[MK801]", "values": [{"measurement": "Protection activity (%)", "setting": "MK801 positive control in Table 1, concentration not given", "value": 79, "unit": "%"}, {"measurement": "Relative protection", "setting": "positive control at 10 μM, P<0.0001", "value": "80.6±1.6", "unit": "%"}]}]}
